For experiment [1], the target named is T1, human PR-B receptor (Homo sapiens, UniProt P06401).
T1 sequence (P06401 1-933): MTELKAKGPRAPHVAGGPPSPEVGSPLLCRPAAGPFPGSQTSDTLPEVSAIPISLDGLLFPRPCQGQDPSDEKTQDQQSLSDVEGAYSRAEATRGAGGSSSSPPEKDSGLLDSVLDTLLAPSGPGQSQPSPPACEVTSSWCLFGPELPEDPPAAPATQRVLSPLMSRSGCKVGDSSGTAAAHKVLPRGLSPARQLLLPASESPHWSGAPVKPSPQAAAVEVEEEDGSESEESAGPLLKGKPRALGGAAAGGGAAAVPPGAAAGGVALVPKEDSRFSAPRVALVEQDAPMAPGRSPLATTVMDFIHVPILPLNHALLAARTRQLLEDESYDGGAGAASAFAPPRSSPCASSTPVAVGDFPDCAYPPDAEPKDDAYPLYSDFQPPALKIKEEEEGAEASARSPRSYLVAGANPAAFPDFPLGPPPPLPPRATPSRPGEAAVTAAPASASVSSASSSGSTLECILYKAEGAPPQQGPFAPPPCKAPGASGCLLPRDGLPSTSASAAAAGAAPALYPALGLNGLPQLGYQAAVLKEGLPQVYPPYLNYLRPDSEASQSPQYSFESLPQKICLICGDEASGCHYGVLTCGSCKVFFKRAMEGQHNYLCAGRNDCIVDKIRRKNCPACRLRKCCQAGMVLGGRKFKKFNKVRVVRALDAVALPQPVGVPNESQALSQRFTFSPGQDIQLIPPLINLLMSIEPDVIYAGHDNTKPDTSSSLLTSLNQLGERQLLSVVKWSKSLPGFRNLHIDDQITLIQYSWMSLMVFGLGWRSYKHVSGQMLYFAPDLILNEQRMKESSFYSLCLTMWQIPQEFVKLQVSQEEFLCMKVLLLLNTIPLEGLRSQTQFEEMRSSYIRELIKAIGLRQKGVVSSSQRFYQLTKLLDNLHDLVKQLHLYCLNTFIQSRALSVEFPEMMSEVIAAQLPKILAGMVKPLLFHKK
The experiment is described as follows: PR-B transactivation (CHO, MMTV-LUC). The class given is cell-based.
Source text: The vector pcDNA3.1 coding sequence for the full length of human PRA and PRB (cDNA ORF clone in pcDNA3.1+/C-(K)-DYK) was used as an expression vector for PR isoform A and B, respectively. Vector pGL4.36 coding for the progesterone responsive element MMTV and firefly luciferase reporter vector [luc2P/Hygro] were used as reporter systems (pGL4.36-MMTV/LUC).
A sufficient transactivation signal was achieved using stable transfection for the human PRA and PRB receptors and transient transfection for the MMTV-luciferase reporter gene. Therefore, the first stable transfection with the receptor of interest was performed. Thus, 0.5x10^6 CHO cells per well were plated into 6-well plates in transfection medium w/o antibiotics (RPMI phenol-free, 10% FBS,2mM L-glutamine). When the cells reached 80% confluency, transfection with receptor using FuGENE 6 in Opti-MEM medium was accomplished according to the manufacturer’s instruction. After 48h of transfection, stably transfected cells were cultured in a growth medium containing an antibiotic (G418 500 µg/mL). Only cells with the resistance gene (resistance to G418), which had been transfected together with the DNA for PRA and PRB were able to grow in this medium. Consequently, growing cell clones were selected for further steps as stable transfectants. The CHO cells stably transfected with the expression of PRA or PRB were transiently transfected with promoter MMTV/LUC vectors. For this purpose, cells with a density of 12.5x10^3 per well in a 96-well plate were transfected using transfection reagent FuGENE and Opti-MEM medium, following the manufacturer’s instructions. The recovery of cells lasted 24h and they were then moved into the culture medium and treated for 24h with test compounds.
After 24h incubation of cells with tested compounds, luciferase activity was measured using a VICTOR™ X Multilabel Plate Reader -Perkin Elmer.

For experiment [2], the target named is T2, human androgen receptor (Homo sapiens, UniProt P10275).
T2 construct: host or cells: CHO, transient co-transfection
T2 sequence (P10275 1-920): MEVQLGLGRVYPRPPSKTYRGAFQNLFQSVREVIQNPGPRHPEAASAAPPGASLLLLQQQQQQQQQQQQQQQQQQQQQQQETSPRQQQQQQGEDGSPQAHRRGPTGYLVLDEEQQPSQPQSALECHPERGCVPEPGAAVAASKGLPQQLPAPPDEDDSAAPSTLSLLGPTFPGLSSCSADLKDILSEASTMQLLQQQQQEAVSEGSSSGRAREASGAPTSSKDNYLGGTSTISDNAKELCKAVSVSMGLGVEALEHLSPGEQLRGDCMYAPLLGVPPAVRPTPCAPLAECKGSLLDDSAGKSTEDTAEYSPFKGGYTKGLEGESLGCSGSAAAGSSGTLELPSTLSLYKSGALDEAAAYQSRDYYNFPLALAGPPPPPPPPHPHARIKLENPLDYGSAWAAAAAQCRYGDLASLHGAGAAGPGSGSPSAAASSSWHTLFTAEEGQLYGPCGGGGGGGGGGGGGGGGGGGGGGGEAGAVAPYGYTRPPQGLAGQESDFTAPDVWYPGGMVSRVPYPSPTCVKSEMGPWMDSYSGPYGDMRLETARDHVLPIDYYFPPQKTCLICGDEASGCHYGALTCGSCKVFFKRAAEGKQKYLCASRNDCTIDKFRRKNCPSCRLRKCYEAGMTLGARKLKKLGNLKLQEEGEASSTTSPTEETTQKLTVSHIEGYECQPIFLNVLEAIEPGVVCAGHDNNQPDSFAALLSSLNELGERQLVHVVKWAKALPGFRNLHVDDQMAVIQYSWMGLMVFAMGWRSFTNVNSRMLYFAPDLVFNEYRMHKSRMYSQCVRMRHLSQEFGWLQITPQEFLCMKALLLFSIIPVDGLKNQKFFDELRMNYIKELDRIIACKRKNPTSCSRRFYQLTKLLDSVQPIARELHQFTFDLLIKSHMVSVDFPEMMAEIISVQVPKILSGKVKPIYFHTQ
Kind of experiment: AR transactivation (CHO, MMTV-LUC). The class given is cell-based. The procedure: The androgen transactivation potential of EC313 was studied in the CHO cell line expressing this steroid protein receptor. The cells were co-transfected with a vector encoding a human full-length androgen receptor (hAR) linked to the reporter vector MMTV/LUC. To produce high protein expression, transient transfections were carried out. […] Agonist and antagonist properties of EC313 toward tested receptor AR were analyzed using luminescence detection.
To prepare the transfection assay, plasmids were generated and isolated. Plasmid included vector coding sequences for the receptor as well as the reporter gene. Vector pcDNA3.1 coding sequence for the full length of human AR (AR cDNA ORF clone in pcDNA3.1+/C-(K)-DYK) was used as an expression vector for AR. Vector pGL4.36 coding for the androgen-responsive element (MMTV) linked to Firefly luciferase [luc2P/Hygro] was used as a reporter system (pGL4.36-MMTV/LUC).
Co-transfection was performed on a 96-well plate (16x10^3 cells per well) in culture medium (RPMI w/o phenol red, 10% FBS, L-Glu) w/o antibiotics using transfection reagents following the manufacturer’s instructions. Prior to transfection, plated cells were approximately 70%–80% confluent. After 24h of transfection, medium was removed to a culture medium and cells were treated for the next 24h with the test compounds.
After incubating the cells for 24h with the tested compounds, the luciferase activity was analyzed.

The IC50 is the concentration needed to halve the response being measured. By EC50 is commonly meant the concentration that produces a half-maximal response. Regarding `C[C@]12C[C@H](c3ccc(-c4ccoc4)cc3)C3=C4CCC(=O)C=C4CC[C@H]3[C@@H]1CC[C@]21OCCC1=C(F)F` [EC313], in experiment [1] (PR-B antagonism), the “potency relative to Mifepristone” value is “approximately 13%”. The agonistic activity entry in experiment [1] (PR-B, high nM concentrations) is given as “Only marginal agonistic activity”. Also, in experiment [1] (PR-B, set of 6 experiments, Promegestone 1.0 nM, read-out: average IC50, antagonism), the concentration for half-maximal inhibition (IC50) worked out at 0.0025 ± 0.0007 µM. In experiment [2] (AR agonism), the “fold higher concentration for the same androgenic effect vs Metribolone” value was found to be 38 fold. Also, the EC50 in experiment [2] (AR, three experiments, read-out: EC50, agonistic activity) worked out at 0.28 µM. Moreover, the antagonistic activity result in experiment [2] (AR, vs 13 nM Metribolone) was “No antagonistic activity”.

(Values after PMC10520499, “Next step in the development of mesoprogestins: the preclinical profile of EC313” (Frontiers in Endocrinology, 2023).)
